Values quoted from earlier work as cited in patent publication US20230018472A1, “RHINENCHYSIS COMPOSITION CONTAINING OLOPATADINE” (TOKO YAKUHIN KOGYO CO., LTD., priority 2019, published 2023).
Where two headings read alike, the source gives them in different places.

- Solubility of olopatadine (around neutral pH): very low
- Solubility of olopatadine (concentration 0.2% or more as free base, solution having pH of 5 or higher): not soluble
Compound: CN(C)CC/C=C1/c2ccccc2COc2ccc(CC(=O)O)cc21 [olopatadine]
